Data as given in US8541407B2 (ArQule, Inc., priority 2010, dated 2013).
Where a name gives a salt, the structure may show the parent alone.

target: AKT1 (Homo sapiens (Human), UniProt P31749); test: Inactive Akt Alpha Screen Assay; conditions: non *labeled: Akt Alpha Screen assay; read-out: AKT1 biochemical assay, IC50
Description: AKT1 activity was assayed using the GSK3-derived biotinylated peptide substrate, crosstide (biotin-[…]), and AlphaScreen™ (Amplified Luminescent Proximity Homogeneous Assay) technology. AKT1 activation was achieved by the addition of the activating kinases PDK1 and MAPKAPK2, lipid vesicles, and ATP. The extent of peptide phosphorylation was determined using a phospho-AKT substrate antibody and acceptor beads conjugated to Protein A and donor beads conjugated to streptavidin that bind to the biotin on the peptide. Excitation of the donor beads converted ambient oxygen to excited singlet oxygen which, when in close proximity to acceptor beads, reacted with acceptor beads resulting in signal amplification. […] The plates were incubated for 30 minutes at room temperature, and then stopped in the dark by the addition of 10 μL stop/detection mixture prepared in assay buffer containing EDTA, AlphaScreen™ Streptavidin Donor and Protein A Acceptor beads, and phospho-AKT substrate antibody for final concentrations of 10 mM EDTA, 500 ng/well of both AlphaScreen™ Streptavidin Donor beads and Protein A Acceptor beads, and phospho-AKT substrate antibody at a final dilution of 1:350. Assay plates were incubated for 90 minutes at room temperature in the dark, and the plates were read on a Perkin Elmer Envision Multilabel plate reader (excitation wavelength: […], emission wavelength: 570 nm). […] Envision Instrument Settings: • Instrument: Perkin Elmer Envision • Plate: 96 well • Program Name: • Excitation: Ex Top • Mirror: General Dual—Slot 2 • Excitation Filter: CFP430 Ex.

Sequence of AKT1 (P31749 whole entry): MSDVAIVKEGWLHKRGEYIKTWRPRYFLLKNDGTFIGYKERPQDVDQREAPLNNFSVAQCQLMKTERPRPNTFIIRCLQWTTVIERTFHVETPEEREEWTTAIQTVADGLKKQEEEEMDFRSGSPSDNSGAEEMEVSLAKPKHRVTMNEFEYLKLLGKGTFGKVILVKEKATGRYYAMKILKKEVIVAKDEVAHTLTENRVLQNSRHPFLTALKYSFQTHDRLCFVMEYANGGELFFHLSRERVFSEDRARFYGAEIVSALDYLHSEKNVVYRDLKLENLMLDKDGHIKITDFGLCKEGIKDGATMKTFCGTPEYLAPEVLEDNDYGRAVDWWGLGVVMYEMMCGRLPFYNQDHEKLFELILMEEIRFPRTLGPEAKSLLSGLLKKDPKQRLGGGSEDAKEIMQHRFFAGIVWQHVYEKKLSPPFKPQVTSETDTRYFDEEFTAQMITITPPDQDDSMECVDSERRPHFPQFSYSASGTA

Compound	IC50 [nM]
c1ccc(-c2nnc3n2-c2cccnc2Nc2ccccc2-3)cc1 [Example 1, 3-phenyl-9H-benzo[f]pyrido[2,3-b][1,2,4]triazolo[4,3-d][1,4]diazepine]	2800
c1coc(-c2nnc3n2-c2cccnc2Nc2ccccc2-3)c1 [Example 2]	6300
Nc1cc(-c2nnc3n2-c2cccnc2Nc2ccccc2-3)ccn1 [Example 3, 4-(9H-benzo[f]pyrido[2,3-b][1,2,4]triazolo[4,3-d][1,4]diazepin-3-yl)pyridin-2-amine]	13000
c1c[nH]c(-c2nnc3n2-c2cccnc2Nc2ccccc2-3)c1 [Example 4, 3-(1H-pyrrol-2-yl)-9H-benzo[f]pyrido[2,3-b][1,2,4]triazolo[4,3-d][1,4]diazepine]	7900
Cc1ccc(-c2nnc3n2-c2cccnc2Nc2ccccc2-3)cc1 [Example 6, hydrochloride]	13000
FC(F)(F)c1ccc(-c2nnc3n2-c2cccnc2Nc2ccccc2-3)cc1 [Example 8, 3-(4-(trifluoromethyl)phenyl)-9H-benzo[f]pyrido[2,3-b][1,2,4]triazolo[4,3-d][1,4]diazepine]	30000
Clc1ccc(-c2nnc3n2-c2cccnc2Nc2ccccc2-3)cc1 [Example 9, hydrochloride]	5100
Nc1ccc(-c2nnc3n2-c2cccnc2Nc2ccccc2-3)cc1 [Example 11, hydrochloride]	730
Clc1ccc(-c2nnc3n2-c2cccnc2Nc2ccccc2-3)cc1Cl [Example 13, hydrochloride]	5100
CN1c2ccccc2-c2nnc(-c3ccc4ccccc4c3)n2-c2ccccc21 [Example 14, hydrochloride]	67000
Fc1cccc(F)c1-c1nnc2n1-c1cccnc1Nc1ccccc1-2 [Example 16]	28000
Fc1ccc(-c2nnc3n2-c2cccnc2Nc2ccccc2-3)c(F)c1 [Example 17]	7200
Oc1ccc(-c2nnc3n2-c2cccnc2Nc2ccccc2-3)cc1 [Example 19, 4-(9H-benzo[f]pyrido[2,3-b][1,2,4]triazolo[4,3-d][1,4]diazepin-3-yl)phenol]	2200
CN(C)c1ccc(-c2nnc3n2-c2ccccc2Nc2ccccc2-3)cc1 [Example 21, 4-(9H-dibenzo[b,f][1,2,4]triazolo[4,3-d][1,4]diazepin-3-yl)-N,N-dimethylaniline]	3500
OCc1ccc(-c2nnc3n2-c2cccnc2Nc2ccccc2-3)cc1 [Example 23, (4-(9H-benzo[f]pyrido[2,3-b][1,2,4]triazolo[4,3-d][1,4]diazepin-3-yl)phenyl)methanol]	1000
O=c1[nH]c2ccccc2n1C1CCN(Cc2ccc(-c3nnc4n3-c3cccnc3Nc3ccccc3-4)cc2)CC1 [Example 24, 1-(1-(4-(9H-benzo[f]pyrido[2,3-b][1,2,4]triazolo[4,3-d][1,4]diazepin-3-yl)benzyl)piperidin-4-yl)-1H-benzo[d]imidazol-2(3H)-one]	83
O=C(Nc1ccc(-c2nnc3n2-c2cccnc2Nc2ccccc2-3)cc1)c1ccc2ccccc2c1 [Example 28, N-(4-(9H-benzo[f]pyrido[2,3-b][1,2,4]triazolo[4,3-d][1,4]diazepin-3-yl)phenyl)-2-naphthamide]	680
COc1ccc(C(=O)Nc2ccc(-c3nnc4n3-c3cccnc3Nc3ccccc3-4)cc2)cc1 [Example 31, N-(4-(9H-benzo[f]pyrido[2,3-b][1,2,4]triazolo[4,3-d][1,4]diazepin-3-yl)phenyl)-4-methoxybenzamide]	160
COc1ccccc1C(=O)Nc1ccc(-c2nnc3n2-c2cccnc2Nc2ccccc2-3)cc1 [Example 41, N-(4-(9H-benzo[f]pyrido[2,3-b][1,2,4]triazolo[4,3-d][1,4]diazepin-3-yl)phenyl)-2-methoxybenzamide]	520

Further compounds by falling IC50, results first:

IC50 [nM]	Compound
8100	Nc1cccc(-c2nnc3n2-c2cccnc2Nc2ccccc2-3)c1 [Example 18, hydrochloride]
4700	CC(C)(C)c1ccc(-c2nnc3n2-c2cccnc2Nc2ccccc2-3)cc1 [Example 7, 3-(4-(tert-butyl)phenyl)-9H-benzo[f]pyrido[2,3-b][1,2,4]triazolo[4,3-d][1,4]diazepine]
2600	COC(=O)c1ccc(-c2nnc3n2-c2cccnc2Nc2ccccc2-3)cc1 [Example 25, methyl 4-(9H-benzo[f]pyrido[2,3-b][1,2,4]triazolo[4,3-d][1,4]diazepin-3-yl)benzoate]
2500	O=C(Nc1ccc(-c2nnc3n2-c2cccnc2Nc2ccccc2-3)cc1)c1cc(C(F)(F)F)cc(C(F)(F)F)c1 [Example 29, N-(4-(9H-benzo[f]pyrido[2,3-b][1,2,4]triazolo[4,3-d][1,4]diazepin-3-yl)phenyl)-3,5-bis(trifluoromethyl)benzamide]
2100	Nc1ccc(-c2nnc3n2-c2cccnc2Nc2ccccc2-3)cn1 [Example 5, hydrochloride]
1900	c1ccc(-c2nnc3n2-c2ccccc2Nc2ccccc2-3)cc1 [Example 20, 3-phenyl-9H-dibenzo[b,f][1,2,4]triazolo[4,3-d][1,4]diazepine]
1900	CN(C)c1ccc(C(=O)Nc2ccc(-c3nnc4n3-c3cccnc3Nc3ccccc3-4)cc2)cc1 [Example 45, N-(4-(9H-benzo[f]pyrido[2,3-b][1,2,4]triazolo[4,3-d][1,4]diazepin-3-yl)phenyl)-4-(dimethylamino)benzamide]
1800	Nc1ccc(-c2nnc3n2-c2ccccc2Nc2ccccc2-3)cc1 [Example 22, 4-(9H-dibenzo[b,f][1,2,4]triazolo[4,3-d][1,4]diazepin-3-yl)aniline]
1800	CCC(=O)Nc1ccc(-c2nnc3n2-c2cccnc2Nc2ccccc2-3)cc1 [Example 39, N-(4-(9H-benzo[f]pyrido[2,3-b][1,2,4]triazolo[4,3-d][1,4]diazepin-3-yl)phenyl)propionamide]
950	O=C(Cc1cccc2ccccc12)Nc1ccc(-c2nnc3n2-c2cccnc2Nc2ccccc2-3)cc1 [Example 35, N-(4-(9H-benzo[f]pyrido[2,3-b][1,2,4]triazolo[4,3-d][1,4]diazepin-3-yl)phenyl)-2-(naphthalen-1-yl)acetamide]
800	O=C(c1ccc(-c2nnc3n2-c2cccnc2Nc2ccccc2-3)cc1)N1CCC(n2c(=O)[nH]c3ccccc32)CC1 [Example 26, 1-(1-(4-(9H-benzo[f]pyrido[2,3-b][1,2,4]triazolo[4,3-d][1,4]diazepin-3-yl)benzoyl)piperidin-4-yl)-1H-benzo[d]imidazol-2(3H)-one]
730	CCCC(=O)Nc1ccc(-c2nnc3n2-c2cccnc2Nc2ccccc2-3)cc1 [Example 32, N-(4-(9H-benzo[f]pyrido[2,3-b][1,2,4]triazolo[4,3-d][1,4]diazepin-3-yl)phenyl)butyramide]
700	CC(C)CC(=O)Nc1ccc(-c2nnc3n2-c2cccnc2Nc2ccccc2-3)cc1 [Example 33, N-(4-(9H-benzo[f]pyrido[2,3-b][1,2,4]triazolo[4,3-d][1,4]diazepin-3-yl)phenyl)-3-methylbutanamide]
640	O=C(Nc1ccc(-c2nnc3n2-c2cccnc2Nc2ccccc2-3)cc1)c1cccc2ccccc12 [Example 34, N-(4-(9H-benzo[f]pyrido[2,3-b][1,2,4]triazolo[4,3-d][1,4]diazepin-3-yl)phenyl)-1-naphthamide]
420	CC(C)(C)C(=O)Nc1ccc(-c2nnc3n2-c2cccnc2Nc2ccccc2-3)cc1 [Example 43, N-(4-(9H-benzo[f]pyrido[2,3-b][1,2,4]triazolo[4,3-d][1,4]diazepin-3-yl)phenyl)pivalamide]
360	O=C(Nc1ccc(-c2nnc3n2-c2cccnc2Nc2ccccc2-3)cc1)c1cc2ccccc2s1 [Example 42, N-(4-(9H-benzo[f]pyrido[2,3-b][1,2,4]triazolo[4,3-d][1,4]diazepin-3-yl)phenyl)benzo[b]thiophene-2-carboxamide]
340	CC(C)(C)CC(=O)Nc1ccc(-c2nnc3n2-c2cccnc2Nc2ccccc2-3)cc1 [Example 36, N-(4-(9H-benzo[f]pyrido[2,3-b][1,2,4]triazolo[4,3-d][1,4]diazepin-3-yl)phenyl)-3,3-dimethylbutanamide]
260	O=C(Nc1ccc(-c2nnc3n2-c2cccnc2Nc2ccccc2-3)cc1)c1cccnc1 [Example 40, N-(4-(9H-benzo[f]pyrido[2,3-b][1,2,4]triazolo[4,3-d][1,4]diazepin-3-yl)phenyl)nicotinamide]
230	CC(C)(C)c1ccc(C(=O)Nc2ccc(-c3nnc4n3-c3cccnc3Nc3ccccc3-4)cc2)cc1 [Example 44, N-(4-(9H-benzo[f]pyrido[2,3-b][1,2,4]triazolo[4,3-d][1,4]diazepin-3-yl)phenyl)-4-(tert-butyl)benzamide]
150	O=C(Nc1ccc(-c2nnc3n2-c2cccnc2Nc2ccccc2-3)cc1)c1ccc(F)c(F)c1 [Example 37, N-(4-(9H-benzo[f]pyrido[2,3-b][1,2,4]triazolo[4,3-d][1,4]diazepin-3-yl)phenyl)-3,4-difluorobenzamide]
140	N#Cc1ccc(C(=O)Nc2ccc(-c3nnc4n3-c3cccnc3Nc3ccccc3-4)cc2)cc1 [Example 38, N-(4-(9H-benzo[f]pyrido[2,3-b][1,2,4]triazolo[4,3-d][1,4]diazepin-3-yl)phenyl)-4-cyanobenzamide]
